Test results reported in patent US20220280601A1, “METHOD FOR TREATMENT OF HEPATIC CANCER USING REIC/Dkk-3 GENE IN COMBINATION WITH ANTI-TUMOR AGENT” (Momotaro-Gene Inc., priority 2019, published 2022).

Tests used:
[1] = test system: JNK signal transmission pathway (p-ASK1, p-IRE1α, p-JNK, p-c-Jun) in Huh7 cells; assay: Immunoblot analysis of the JNK signal transmission pathway; format: cell-based; conditions: Huh7, lysates 48 hours after transfection, regardless of the presence or absence of Ad-REIC (MOI of 10)
Description: The mechanism of Ad-REIC for apoptosis induction was examined. By performing immunoblotting, activation of signal transmission molecules in the JNK signal transmission pathway by Ad-REIC and Cisplatin was evaluated. Ad-LacZ and Ad-REIC at MOI of 10 each were transfected into the Hep3B cells and the Huh7 cells, and cell lysates were collected 48 hours thereafter. Protein expression of phospho-ASK1 (p-ASK1), phospho-IRE1α (p-IRE1α), phospho-JNK (p-JNK), and phospho-c-Jun (p-c-Jun) β-actin was analyzed via immunoblotting using specific antibodies. Immunoblotting of β-actin was performed to examine equal loading of proteins in the cells.

Huh7 cells = assay: MTT cell viability assay, Huh7; format: cell-based; conditions: 72 hours
Description: (§1) The hepatic cancer cell lines Hep3B and Huh7 (hereafter, referred to as “Hep3B cells” and “Huh7 cells,” respectively, according to need) were purchased from the Japanese Cancer Resources Bank (Tokyo, Japan). The cells were maintained in Dulbecco's Modified Eagle's Medium supplemented with 10% FBS, 1% non-essential amino acid, 1% penicillin/streptomycin, and amphotericin B (0.5 μg/ml). The cells were cultured in accordance with a conventional technique in a humidified 5% CO2 incubator at 37° C. When the cells reached subconfluency, they were pretreated in a medium containing 0.1% dialyzed FBS for 24 hours before experimentation and then subjected to experimentation. […]
(§2) The hepatic cancer cell lines Hep3B and Huh7 were cultured in the presence or absence of Ad-LacZ or Ad-REIC for 72 hours. Cell viability was evaluated via MTT assays. […] Mitochondrial activity reflecting cell viability was evaluated by measuring the absorbance at 570 nm using a microplate reader. […]
(§3) Hep3B cells and Huh7 cells were cultured in the presence or absence of Cisplatin (1 μg/ml) for 72 hours and in the presence or absence of Ad-Lac Z (MOI of 50) or Ad-REIC (MOI of 50). Cell viability was evaluated by the MTT assays described above. […]

[2] = test system: mouse hepatocellular cancer cell line Hep1-6 allograft; assay: Tumor growth assay in allograft mouse model (Hep1-6), Ad-REIC with Cisplatin; format: in vivo, C57BL/6 mice; conditions: Ad-REIC 1.0×10^9 pfu intratumorally Days 14, 16, Cisplatin 1 mg/kg intraperitoneally Days 14, 21, control PBS
Source text: C57BL/6 female mice (6- to 8-week-old) were purchased from Japan SLC Inc. and maintained with free access to feeds and water in the SPF environment in Okayama University animal experimentation facility. Mice were adapted to the breeding environment over a period of 1 week or longer before the experimentation was initiated. Mice were bred and treated under the strictly controlled conditions in accordance with the guidelines provided by the institutional animal control committee, Okayama University Medical School.
The mouse hepatocellular cancer cell line Hep1-6 ([…], suspended in 200 μl of PBS) were injected into the right flanks of the C57BL/6 mice (Day 0). When the tumor diameters reached 5 to 10 mm, administration of Ad-REIC and Cisplatin was initiated. Ad-REIC (1.0×10^9 pfu) was administered intratumorally on Days 14 and 16. Cisplatin (1 mg/kg) was administered intraperitoneally on Days 14 and 21. Tumor sizes were measured 2 times a week, and tumor volumes were determined.

Hep3B cells = assay: MTT cell viability assay, Hep3B; format: cell-based; conditions: 72 hours
Description: as §1, §2, §3

advanced hepatic cancer = conditions: clinical trials, advanced hepatic cancer (Non-Patent Document 1); cited from earlier work

Row | SMILES | expression of p-ASK1, p-IRE1α, p-JNK and p-c-Jun (immunoblotting) [1] | cell viability of Huh7 cells, dependence on amount of Cisplatin (Huh7 cells) | anti-tumor effects (tumor volume) [2] | cell viability of Hep3B cells, dependence on amount of Cisplatin (Hep3B cells) | medial survival period (advanced hepatic cancer)
1 | N.N.[Cl][Pt][Cl] [Cisplatin] | each such expression was activated | decreased depending on the amount of Cisplatin administered | the tumor volume was decreased, and anti-tumor effects were observed | decreased depending on the amount of Cisplatin administered | 
2 | CNC(=O)c1cc(Oc2ccc(NC(=O)Nc3ccc(Cl)c(C(F)(F)F)c3)cc2)ccn1 [Sorafenib] |  |  |  |  | 15.6 months
